In US12459957B2, “Therapeutic compounds and methods” (GENENTECH, INC., priority 2021, dated 2025):

Tested on: neutrophils (PMA-stimulated NETosis)
Test: Quantification of NETosis using SYTOX Green
Format: cell-based, human
Conditions: for IC50: Homo sapiens, Neutrophil, NETosis, SYTOX Green-stained neutrophils, PMA-stimulated; for 5 uM (% NETosis): compound at 5 uM, vehicle 79.66, untreated 14.54
Text: Semi-automated analysis of both phase and fluorescence images of SYTOX Green-stained neutrophils used a MATLAB algorithm. Total cells were counted by scoring phase standard deviation and radial symmetry. NETosis was classified in cells by measuring the DNA area in the fluorescence image and comparing with a select internal training set for each experiment. Unstimulated cells and PMA-stimulated, pyocyanin-inhibited cells served as negative controls. PMA-stimulated cells served as a positive control. NET-forming cells are presented as a percentage of total cells.

[1] = NET-forming cells as percentage of total cells

SMILES	5 uM (% NETosis) [1]	further results
COc1cc(C(C)=O)ccc1O [Apocynin, reference compound]	–	% NETosis (Apocynin at 100 uM, NET-forming cells as percentage of total cells): 29.06%
COc1cccc(-c2cc3n(n2)Cc2ccc(NC(C)=O)cc2OC3)c1 [Example 2, N-(2-(3-Methoxyphenyl)-4H,10H-benzo[f]pyrazolo[5,1-c][1,4]oxazepin-7-yl)acetamide]	–	IC50: 900 ± 200 nM
COc1ccc(-c2cc3n(n2)Cc2ccc(NC(C)=O)cc2OC3)cc1 [Example 3, N-(2-(4-Methoxyphenyl)-4H,10H-benzo[f]pyrazolo[5,1-c][1,4]oxazepin-7-yl)acetamide]	–	IC50: 520 ± 60 nM
CC#CCC(=O)Nc1cccc(-c2cc3n(n2)Cc2ccc(NC(C)=O)cc2OC3)c1 [Example 4, N-(3-(7-acetamido-4H,10H-benzo[f]pyrazolo[5,1-c][1,4]oxazepin-2-yl)phenyl)pent-3-ynamide]	–	IC50: 800 ± 20 nM
CC(=O)Nc1ccc2c(c1)OCc1cc(-c3cccc(C#CCCCO)c3)nn1C2 [Example 5, N-(2-(3-(5-hydroxypent-1-yn-1-yl)phenyl)-4H,10H-benzo[f]pyrazolo[5,1-c][1,4]oxazepin-7-yl)acetamide]	–	IC50: 3000 ± 1000 nM
Cn1cc(-c2ccc3c(c2)OCc2cc(-c4ccccc4)nn2C3)cn1 [Example 11]	80.81%	–
N#CCn1cc(-c2ccc3c(c2)OCc2cc(-c4ccccc4)nn2C3)cn1 [Example 12, 2-(4-(2-phenyl-4H,10H-benzo[f]pyrazolo[5,1-c][1,4]oxazepin-7-yl)-1H-pyrazol-1-yl)acetonitrile]	81.41%	–
c1ccc(-c2cc3n(n2)Cc2ccc(-c4cnc5n4CCCC5)cc2OC3)cc1 [Example 13]	80.46%	–
c1ccc(-c2cc3n(n2)Cc2ccc(-c4cnn5cccnc45)cc2OC3)cc1 [Example 14]	83.04%	–
c1ccc(-c2cc3n(n2)Cc2ccc(-c4cnc5ncccn45)cc2OC3)cc1 [Example 15]	77.26%	–
c1ccc(-c2cc3n(n2)Cc2ccc(-c4cncs4)cc2OC3)cc1 [Example 16]	80.91%	–
c1ccc(-c2cc3n(n2)Cc2ccc(-c4cn[nH]c4)cc2OC3)cc1 [Example 17]	76.49%	–
Cn1cc(C#N)c(Nc2ccc3c(c2)OCc2cc(-c4ccccc4)nn2C3)n1 [Example 18]	79.81%	–
OCCn1cc(Nc2ccc3c(c2)OCc2cc(-c4ccccc4)nn2C3)cn1 [Example 20]	77.97%	–
c1ccc(-c2cc3n(n2)Cc2ccc(NC4CCCC4)cc2OC3)cc1 [Example 21, N-cyclopentyl-2-phenyl-4H,10H-benzo[f]pyrazolo[5,1-c][1,4]oxazepin-7-amine]	86.47%	–
Oc1cc(Nc2ccc3c(c2)OCc2cc(-c4ccccc4)nn2C3)[nH]n1 [Example 22]	79.55%	–
c1ccc(-c2cc3n(n2)Cc2ccc(NC4CCC4)cc2OC3)cc1 [Example 23]	86.22%	–
CCc1n[nH]c(Nc2ccc3c(c2)OCc2cc(-c4ccccc4)nn2C3)c1Cl [Example 24]	81.55%	–
Cn1cc(Nc2ccc3c(c2)OCc2cc(-c4ccccc4)nn2C3)cn1 [Example 25]	78.63%	–
c1ccc(-c2cc3n(n2)Cc2ccc(NC4CC4)cc2OC3)cc1 [Example 26]	78.70%	–
Clc1cc(Nc2ccc3c(c2)OCc2cc(-c4ccccc4)nn2C3)[nH]n1 [Example 27]	54.56%	–
Clc1[nH]ncc1Nc1ccc2c(c1)OCc1cc(-c3ccccc3)nn1C2 [Example 28, N-(5-chloro-1H-pyrazol-4-yl)-2-phenyl-4H,10H-benzo[f]pyrazolo[5,1-c][1,4]oxazepin-7-amine]	44.49%	–
N#C[C@H]1C[C@H](Nc2ccc3c(c2)OCc2cc(-c4ccccc4)nn2C3)C1 [Example 29]	87.44%	–
c1ccc(-c2cc3n(n2)Cc2ccc(NC4COC4)cc2OC3)cc1 [Example 30]	84.70%	–
Cn1cc(Nc2ccc3c(c2)OCc2cc(-c4ccccc4)nn2C3)c(Cl)n1 [Example 31]	85.26%	–
Cn1nccc1Nc1ccc2c(c1)OCc1cc(-c3ccccc3)nn1C2 [Example 32]	76.40%	–
